These results are taken from PMC5584973, “Characterization of novel bangle lectin from Photorhabdus asymbiotica with dual sugar-binding specificity and its effect on host immunity” (PLoS Pathogens, 2017).

Read-outs that look alike come from different tables or passages of the source.

The target in assay [1] is T1, PHL (Photorhabdus asymbiotica, UniProt C7BLE4). The assay is classed as binding. As to conditions: for Median: calculated from hexaplicates; for relative binding / preference on glycan array: PHL 200 μg/ml.
T1 sequence (C7BLE4 1-369): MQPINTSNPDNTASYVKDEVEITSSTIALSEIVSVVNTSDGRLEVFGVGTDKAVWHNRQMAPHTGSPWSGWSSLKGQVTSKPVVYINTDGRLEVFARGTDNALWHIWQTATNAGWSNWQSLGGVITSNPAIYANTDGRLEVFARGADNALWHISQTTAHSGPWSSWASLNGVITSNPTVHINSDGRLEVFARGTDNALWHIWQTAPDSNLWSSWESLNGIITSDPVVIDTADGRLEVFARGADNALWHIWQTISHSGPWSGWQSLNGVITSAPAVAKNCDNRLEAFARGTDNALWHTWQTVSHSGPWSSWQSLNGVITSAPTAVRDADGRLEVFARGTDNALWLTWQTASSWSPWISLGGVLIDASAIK
In assay [2] the target is T1, PHL. The experiment in a line: Isothermal titration calorimetry (ITC). Type of assay: binding. The method, then:
ITC experiments were performed using an ITC200 calorimeter (Malvern, England). Experiments were performed at 25°C in buffer A (300 mM NaCl, 20 mM Tris/HCl, pH 7.5). Carbohydrate ligands were dissolved in the same buffer. Protein in the cell (50 μM) was titrated by consecutive addition (2 μl) of the ligand in the syringe (1.5–50 mM) while stirring at 1000 rpm. Control experiments performed with injections of buffer in the protein solution yielded insignificant signals. Integrated heat effects were analyzed by nonlinear regression using a single-site binding model in Origin 7 (Microcal). The experimental data fitted to a theoretical titration curve brought up stoichiometry (n), association constant Ka, and the enthalpy of binding ΔH. The other thermodynamic parameters such as free energy (ΔG) and […] (ΔS) were calculated from the equation ΔG = ΔH-TΔS = -RTlnKa, where T is the absolute temperature and R is the molar gas constant (8.314 J.mol^-1.K^-1). At least two independent titrations were carried out for each tested ligand.
A general note: In ITC the heat of successive injections is recorded.

In assay [3] the target is T1, PHL. The experiment in a line: Haemagglutination inhibition assay with PHL. The assay is classed as cell-based. Conditions: for Potency towards L-fucose: haemagglutination inhibition, from MIC; for MIC (minimal inhibitory concentration) of haemagglutination by PHL: microscopy. The method, then:
A haemagglutination inhibition assay was performed to determine the specificity and semi-quantitative affinity of PHL interaction with the saccharides. A wide range of monosaccharides at concentrations from 50 mM to 0.5 mM were used for determining the lowest inhibiting concentration. A 20 μl mixture composed of 5 μl PHL (2mg/ml), 5 μl saccharide, and 10 μl 10% RBCs was prepared (all components of reaction were in PBS buffer). After 10 minutes, the reaction was observed using a Levenhuk microscope.

The target in assay [4] is T1, PHL. The experiment in a line: SPR inhibition of PHL binding to immobilized L-fucoside. Conditions: for Potency relative to L-Fuc: SPR inhibition, from IC50; for IC50: SPR, PHL 0.25 μM binding to immobilized L-fucoside, 25°C, read-out: IC50. The method, then:
SPR inhibition experiments were performed using the same conditions described above. The PHL lectin (0.25 μM final concentration) was mixed with various concentrations of inhibitors (1M – 0.01 mM) and injected onto the sensor chip. Pure PHL lectin was used as a control (0% inhibition). The response of the lectin bound to the sugar surface at equilibrium was plotted against the concentration of inhibitor in order to determine IC50.

Setting [5] is: glycan array signal of labelled PHL for the printed glycan/polysaccharide, Semiotic slide 10085636.
[6] abbreviates: glycan array signal of PHL per printed glycan, microarray chip (Semiotic, Moscow; Slide number 10085636), 488 channel.
[7] abbreviates: ITC at 25°C, stoichiometry fixed to 3, read-out: KD (n = 3).
Setting [8] is: ITC at 25°C, stoichiometry fixed to 4, read-out: KD (n = 4).

In the case of `NCC(O)C(O)C(O)C(O)CO` (stereo not shown) [HOCH2(HOCH)4CH2NH2], the Median at PHL [1] (setting [5]) was 70.
Take Galβ1-6Galβ-sp4: the Median on PHL [1] (setting [6]) is given as 85.
As to GalNAcα1-3Galβ1-4(Fucα1-3)GlcNAcβ-sp3, the Median on PHL [1] (setting [5]) is listed as 73.
Same read-out and setting: the same measure for “Galβ1-4GlcNAcβ1-6(Galβ1-4GlcNAcβ1-3)GalNAcα-sp3”: 71; for `CC(=O)N[C@@H]1[C@@H](O)[C@H](O[C@@H]2O[C@H](CO)[C@@H](O)[C@H](O)[C@H]2NC(C)=O)[C@@H](CO)O[C@H]1NC(=O)C[C@H](N)C(=O)O` [GlcNAcβ1-4GlcNAcβ-Asn]: 77.
Regarding `CC(=O)N[C@H]1C(O)O[C@H](CO)[C@@H](O[C@@H]2O[C@@H](C)[C@@H](O)[C@@H](O)[C@@H]2O)[C@@H]1O` (stereo partly shown) [Fucα1-4GlcNAc], the Kd on PHL [2] (setting [7]) came out at 4460 ± 310 µM. Also, the Kd on PHL [2] (setting [8]) was 4370 ± 310 µM. Besides, on PHL [3], the “Potency towards L-fucose” value came out at 1.3 and the “MIC (minimal inhibitory concentration) of haemagglutination by PHL” value (from here on “MIC (minimal inhibitory concentration)”) was 2500 µM. On PHL [4], the “Potency relative to L-Fuc” value is 0.49 and the IC50 stood at 730 µM.
Regarding GlcNAcβ-sp8, the Median on PHL [1] (setting [6]) is on record as 78.
Still for that read-out and setting: with 6-O-Su-Galβ1-3GalNAcα-sp3 the figure was 81; with “4,6-O-Su2-GalNAcβ1-4-(3-O-Ac)GlcNAcβ-sp3”, 81.
For 4-O-Su-Galβ1-4GlcNAcβ-sp3, the Median on PHL [1] (setting [5]) is recorded as 77.
Turning to `CC(=O)N[C@H]1C(O)O[C@H](CO)[C@@H](O[C@@H]2O[C@H](CO)[C@H](O)[C@H](O)[C@H]2O[C@@H]2O[C@@H](C)[C@@H](O)[C@@H](O)[C@@H]2O)[C@@H]1O` (stereo partly shown) [BGH trisaccharide], the Kd on PHL [2] (setting [7]) turned out to be 4440 ± 190 µM. In addition, the Kd on PHL [2] (setting [8]) was determined as 4350 ± 190 µM. Moreover, on PHL [3], the “Potency towards L-fucose” value was <0.01. Besides, on PHL [4], the “Potency relative to L-Fuc” value is recorded as 0.33 and the half-maximal inhibitory concentration (IC50) was determined as 1090 µM.
Consider GlcNAcβ1-4Galβ1-4GlcNAcβ-sp2, for which, at PHL [1] (setting [6]), the Median was 86.
As to `OC[C@H]1OC(O)[C@@H](O)[C@@H](O)[C@@H]1O` (stereo partly drawn) [D-Man, D-mannose], the Kd at PHL [2] (setting [7]) was determined as 44600 ± 2000 µM; at PHL [2] (setting [8]) it was 44400 ± 2000 µM. The “Potency towards L-fucose” value on PHL [3] is given as <0.01. The “Potency relative to L-Fuc” value at PHL [4] is recorded as < 0.01.
For the compound `CC(=O)N[C@H]1[C@@H](OC[C@H](N)C(=O)O)O[C@H](CO)[C@H](O)[C@@H]1O` [GalNAcα1-OSer], at PHL [1] (setting [5]), the Median is 71.
In the case of Galα1-3Galβ1-4GlcNAcβ-sp3, at PHL [1] (setting [5]), the Median is listed as 70.
Regarding `O=C[C@H](O)[C@@H](O)[C@@H](O)[C@H](O)CO` [D-Gal, D-galactose], the Kd on PHL [2] (KD (n = 3), ITC at 25°C, stoichiometry fixed to 3) came to 890 ± 20 µM; at PHL [2] (KD (n = 4), ITC at 25°C, stoichiometry fixed to 4) it was 830 ± 20 µM. Further, the “Potency towards L-fucose” value on PHL [3] is reported as <0.01. Also, the “Potency relative to L-Fuc” value at PHL [4] is < 0.01.
With `CO[C@H]1O[C@@H](C)[C@@H](O)[C@@H](O)[C@@H]1O` [Me-β-L-Fuc, methyl-β-L-fucopyranoside], the Kd on PHL [2] (setting [7]) is 3550 ± 90 µM. Further, the Kd on PHL [2] (setting [8]) was 3480 ± 90 µM. On PHL [3], the “Potency towards L-fucose” value was 0.5 and the “MIC (minimal inhibitory concentration)” value was 6250 µM. In addition, on PHL [4], the “Potency relative to L-Fuc” value was determined as 0.47 and the half-inhibitory concentration (IC50) was 770 µM.
As to GalNAcβ1-4GlcNAcβ-sp2, on PHL [1] (setting [6]), the Median is 87.
As to `COC[C@H]1O[C@@H](O[C@@H]2[C@@H](OC)[C@@H](OC)[C@H](Oc3ccc(OCCN)cc3)O[C@H]2C)[C@H](O)[C@@H](OC)[C@@H]1O` [3,6-O-Me2-Glcβ1-4(2,3-O-Me2)Rhaα-O-(p-C6H4)-OCH2CH2NH2], at PHL [1], the “relative binding / preference on glycan array” value is “most preferred complex saccharide”.
As for `CC(=O)N[C@H]1[C@@H](O[C@H]2[C@@H](O)[C@@H](CO)O[C@@H](O)[C@@H]2O[C@@H]2O[C@@H](C)[C@@H](O)[C@@H](O)[C@@H]2O)O[C@H](CO)[C@H](O)[C@@H]1O` [BGA trisaccharide], on PHL [2] (setting [7]), the Kd was found to be 1450 ± 30 µM. Besides, on PHL [2] (setting [8]), the Kd worked out at 1380 ± 40 µM. For the same compound, on PHL [3], the “Potency towards L-fucose” value came to 1.3 and the “MIC (minimal inhibitory concentration)” value was determined as 2500 µM. Moreover, on PHL [4], the “Potency relative to L-Fuc” value turned out to be 1.21 and the IC50 is 300 µM.
Regarding `CC(=O)N[C@H]1C(O)O[C@H](CO)[C@@H](O)[C@@H]1O[C@@H]1O[C@@H](C)[C@@H](O)[C@@H](O)[C@@H]1O` (stereo partly shown) [Fucα1-3GlcNAc], the Kd at PHL [2] (setting [7]) was 3520 ± 210 µM. Moreover, the Kd at PHL [2] (setting [8]) is 3430 ± 210 µM. Further, at PHL [3], the “Potency towards L-fucose” value is listed as 1.3 and the “MIC (minimal inhibitory concentration)” value was 2500 µM. Moreover, on PHL [4], the “Potency relative to L-Fuc” value is given as 0.53 and the 50% inhibitory concentration (IC50) stood at 690 µM.
Regarding Galβ1-4GlcNAcβ-sp8, the Median at PHL [1] (setting [6]) is listed as 83.
Consider `CC(=O)N[C@@H]1[C@@H](O)[C@H](O)[C@@H](CO)O[C@@H]1O` [D-GlcNAc, N-acetyl-D-glucosamine], for which, on PHL [3], the “Potency towards L-fucose” value is listed as <0.01. On PHL [4], the “Potency relative to L-Fuc” value is 0.01 and the IC50 stood at 70500 µM.
As for `CC(=O)N[C@H]1[C@H](OCCCN)O[C@H](CO)[C@@H](O[C@@H]2O[C@H](CO)[C@H](OS(=O)(=O)O)[C@H](OS(=O)(=O)O)[C@H]2O)[C@@H]1O` [3,4-O-Su2-Galβ1-4GlcNAcβ-sp3], the Median on PHL [1] (setting [6]) is 87.
Take 6-O-Su-Galβ1-3(6-O-Su)GlcNAcβ-sp2: the Median at PHL [1] (setting [6]) was 87.
As for `OC[C@H]1OC(O)[C@H](O)[C@@H](O)[C@@H]1O` (stereo partly drawn) [D-Glc], the Kd on PHL [2] (setting [7]) came to 3550 ± 150 µM; at PHL [2] (setting [8]), 3480 ± 150 µM. Also, the “Potency towards L-fucose” value at PHL [3] is <0.01. In addition, the “Potency relative to L-Fuc” value on PHL [4] is reported as < 0.01.
As to 4,6-O-Su2-Galβ1-4GlcNAcβ-sp2, the Median on PHL [1] (setting [5]) is 77.
On the same count and under the same terms, the same measure for 6-O-Su-Galβ1-3GlcNAcβ-sp3: 73.
On to GalNAcα1-3(Fucα1-2)Galβ1-4GlcNAcβ-sp3, for which the Median on PHL [1] (setting [6]) is on record as 79.
Still for that read-out and setting: with 6-H2PO3Manα-sp3 the figure was 83.
As to Galα1-4GlcNAcβ-sp8, at PHL [1] (setting [5]), the Median is on record as 75.
Same read-out and setting: the same measure for Curdlan: 75.
In the case of `C[C@@H]1O[C@@H](O[C@H]2C(O)O[C@H](CO)[C@H](O)[C@@H]2O[C@H]2O[C@H](CO)[C@H](O)[C@H](O)[C@H]2O)[C@@H](O)[C@H](O)[C@@H]1O` (stereo partly shown) [BGB trisaccharide], the “relative binding / preference on glycan array” value at PHL [1] was “strongest binding to human-related oligosaccharides”. The Kd at PHL [2] (setting [7]) was determined as 570 ± 10 µM; on PHL [2] (setting [8]) it was 510 ± 10 µM; at PHL [2] (ITC, stoichiometry not fixed, read-out: equilibrium dissociation constant) it was 490 µM. Also, the binding stoichiometry on PHL [2] (ITC, fitted) is ~4.3. Besides, the “Potency towards L-fucose” value at PHL [3] is on record as 10. For the same compound, the “Potency relative to L-Fuc” value at PHL [4] is recorded as 5.15; at PHL [4] (listed as blood group B trisaccharide) it was ~5. The half-inhibitory concentration (IC50) at PHL [4] came to 70 µM.

By IC50 is commonly meant the concentration at which inhibition is half-maximal.
